The record followed here is patent US8981094B2, “Piperidine/piperazine derivatives” (Janssen Pharmaceutica N.V., priority 2007, dated 2015).

The target in the test is T1, human DGAT1 (Homo sapiens, UniProt O75907).
T1 construct: FLAG (N); made in house; host or cells: SF9 insect cells (pFastBac baculovirus); total cell membranes
T1 sequence (O75907 1-488): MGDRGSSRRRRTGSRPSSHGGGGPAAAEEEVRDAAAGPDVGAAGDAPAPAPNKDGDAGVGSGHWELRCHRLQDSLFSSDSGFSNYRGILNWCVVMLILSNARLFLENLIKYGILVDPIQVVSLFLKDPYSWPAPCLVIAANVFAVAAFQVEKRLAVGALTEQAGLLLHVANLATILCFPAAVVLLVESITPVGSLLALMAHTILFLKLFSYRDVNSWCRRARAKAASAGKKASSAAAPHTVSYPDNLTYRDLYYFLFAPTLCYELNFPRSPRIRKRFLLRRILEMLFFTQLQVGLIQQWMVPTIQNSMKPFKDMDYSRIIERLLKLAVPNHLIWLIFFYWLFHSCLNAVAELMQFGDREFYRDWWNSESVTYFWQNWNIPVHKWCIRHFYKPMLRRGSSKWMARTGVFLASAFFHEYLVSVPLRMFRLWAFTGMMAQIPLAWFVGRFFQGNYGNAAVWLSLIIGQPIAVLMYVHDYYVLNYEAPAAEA
The test is described as follows: Inhibition of DGAT1 activity, FlashPlate assay with DGAT1 membrane preparations and substrate micelles. Type of test: biochemical. Particulars: pIC50 = -logIC50, IC50 values expressed in M. From the text:
A) Measurement of Inhibition of DGAT1 Activity by the Present Compounds
The inhibiting activity of the present compounds on DGAT1 activity was screened in a single well procedure assay using DGAT1 comprising membrane preparations and DGAT1 substrate comprising micelles and determining formed radio-active triacylglycerol coming in close proximity of a flashplate surface by radio luminescence.
Said assay is described in full detail in WO2006/067071, the content of which is incorporated herein by reference.
By DGAT1 activity is meant the transfer of coenzyme A activated fatty acids to the 3-position of 1,2-diacylglycerols, thus forming a triglyceride molecule, by enzyme DGAT1.
human DGAT1 (NM012079.2) was cloned into the pFastBac vector, containing translation start, a FLAG-tag at the N-terminus as described in literature and a viral Kozak sequence (AAX) preceding the ATG to improve expression in insect cells. Expression was done as described in literature (Cases, S., Smith, S. J., Zheng, Y., Myers H. M., Lear, S. R., Sande, E., Novak, S., Collins, C., Welch, C. B., Lusis, A. J., Erickson, S. K. and Farese, R. V. (1998) Proc. Natl. Acad. Sci. USA 95, 13018-13023.) using SF9 cells.
72 h transfected SF9 cells were collected by centrifugation (13000 rpm-15 min-4° C.) and lysed in 2×500 ml lysisbuffer (0.1M Sucrose, 50 mM KCl, 40 mM KH2PO4, 30 mM EDTA pH 7.2. Cells were homogenized by cell disruptor. After centrifugation 1380 rpm-15 min-4° C. (SN discarded), pellet was resuspended in 500 ml lysisbuffer and total cell membranes collected by ultracentrifugation at 34000 rpm(100 000 g) for 60 min (4° C.). The collected membranes were resuspended in lysis buffer, divided in aliquots and stored with 10% glycerol at −80° C. until use.
Add 1 ml dioleoyl-sn-glycerol (10 mg/ml) to 10 ml of L-α-phosphatidylcholine (1 mg/ml) and 10 ml of L-α-phosphatidyl-L-serine (1 mg/ml) in a thick glass recipient. Evaporate under nitrogen and put on ice for 15 minutes. Reconstitute in 10 ml Tris/HCl (10 mM, pH 7.4) by sonication on ice. The sonification process consists of sonification cycles of 10 seconds in the sonification bath followed by 10 seconds cool down on ice and repeating this sonification cycle till a homogeneous solution is obtained (takes about 15 minutes). The thus obtained micelles are stored at −20° C. till later use and contain DAG at a final concentration of 1.61 mM.
c) Substrate mix (for 1 384 well plate=3840 μl) • 612 μl micelles stock (51 μM final) • 16.6 μl oleoylCoA 9.7 mM • 23 μl [^3H]-oleoylCoA (49 Ci/mmol, 500 μCi/ml) • 3188.4 μl Tris pH 7.4, 10 mM
d) Enzyme mix (for 1 384 well plate=3520 μl) (5 μg/ml) • Add 11.73 μl of DGAT membrane stock (1500 μg/ml stock) to 3508 μl assay buffer.
e) Stop mix (for 1 384 well plate=7.68 ml) (250 mM) • Add 384 μl of N-ethylmaleimide (5M) to 3.456 ml DMSO 100%, and further dilute 3.84 ml of said solution with 3.84 ml DMSO 10%.
DGAT activity in membrane preparations was assayed in 50 mM Tris-HCl (pH 7.4), 150 mM MgCl2, 1 mM EDTA and 0.2% BSA, containing 50 μM DAG, 32 μg/ml PC/PS and 8.4 μM [^3H]-oleoylCoA (at a specific activity of 30 nCi/well) in a final volume of 50 μl in 384-well format using the red shifted Basic Image FlashPlate™ (Perkin Elmer Cat.No. SMP400).
In detail, 10 μl enzyme mix and 10 μl substrate mix were added to 30 μl of assay buffer, optionally in the presence of 1 μl DMSO (blank and controls) or 1 μl of the compound to be tested. This reaction mixture was incubated for 120 minutes at 37° C. and the enzymatic reaction stopped by adding 20 μl of the stop mix. The plates were sealed and the vesicles allowed to settle overnight at room temperature. Plates were centrifuged for 5 minutes at 1500 rpm and measured in Leadseeker. […]

With `CCC(C)C(NC(=O)OC(C)(C)C)C(=O)Nc1ccc(C2CCN(C(=O)Nc3c(Cl)cccc3Cl)CC2)cc1` (centres unmarked) [Compound 213], 0.107 µM corresponded to half-maximal inhibition (IC50).

The molecule `CC(C)CC(NC(=O)OC(C)(C)C)C(=O)Nc1ccc(C2CCN(C(=O)Nc3c(Cl)cccc3Cl)CC2)cc1` (single isomer, unassigned) [Compound 33] showed an IC50 of 0.0355 µM.

Turning to `CN(C)C(=O)CCC(=O)Nc1ccc(N2CCN(C(=O)Nc3c(Cl)cccc3Cl)CC2)cc1` [Compound 137], the IC50 is 3.39 µM.

With `O=C(CCCc1ccccc1)Nc1ccc(N2CCN(C(=O)C(O)c3ccccc3Br)CC2)cc1` (centres unmarked) [Compound 295], inhibition was half-maximal at 0.0138 µM (IC50).

`O=C(CCCc1ccccc1)Nc1ccc(N2CCN(C(=O)Nc3ccccc3C(F)(F)F)CC2)cc1` [Compound 70]: the half-maximal inhibitory concentration (IC50) is 0.138 µM.

Turning to `O=C(CCc1ccccc1)Nc1ccc(C2CCN(C(=O)Nc3c(Cl)cccc3Cl)CC2)cc1` [Compound 131], the half-inhibitory concentration (IC50) is 0.0257 µM.

For the molecule `O=C(CCC(=O)OCc1ccccc1)Nc1ccc(N2CCN(C(=O)Nc3c(Cl)cccc3Cl)CC2)cc1` [Compound 302], the IC50 is 0.0209 µM.

As to `O=C(CCCc1ccccc1)Nc1ccc(N2CCN(C(=O)Nc3c(Cl)cccc3Cl)CC2)c(CO)c1` [Compound 326], the IC50 was 0.126 µM.

Consider `CC(CN)C(=O)Nc1ccc(C2CCN(C(=O)Nc3c(Cl)cccc3Cl)CC2)cc1` (centres unmarked) [Compound 23], for which the IC50 is 2.57 µM.

In turn, `CCC(N)C(=O)Nc1ccc(C2CCN(C(=O)Nc3c(Cl)cccc3Cl)CC2)cc1` (centres unmarked) [Compound 151] gave an IC50 of 6.92 µM.

For `CCc1cccc(N2CCN(CC(=O)Nc3ccc(C4CCN(C(=O)Nc5c(Cl)cccc5Cl)CC4)cc3)CC2)c1` [Compound 106], it took 0.229 µM to reach half-maximal inhibition (IC50).

For the molecule `O=C(CCCc1ccccc1)Nc1ccc(N2CCN(C(=O)C(O)c3ccc(F)cc3Cl)CC2)cc1` (centres unmarked) [Compound 309], inhibition was half-maximal at 0.0355 µM (IC50).

As for `CC(C)(C)OC(=O)NCCC(=O)Nc1ccc(C2CCN(C(=O)Nc3c(Cl)cccc3Cl)CC2)cc1` [Compound 214], 0.0977 µM corresponded to half-maximal inhibition (IC50).

The molecule `COc1ccc(NC(=O)N2CCN(c3ccc(NC(=O)CCCc4ccccc4)cc3)CC2)c(C)c1` [Compound 65] showed an IC50 of 0.0229 µM.

In turn, `O=C(CCc1ccco1)Nc1ccc(C2CCN(C(=O)Nc3c(Cl)cccc3Cl)CC2)cc1` [Compound 133] showed an IC50 of 0.038 µM.

In turn, `O=C(Cn1ccnc1)Nc1ccc(C2CCN(C(=O)Nc3c(Cl)cccc3Cl)CC2)cc1` [Compound 123] had an IC50 of 0.871 µM.

In the case of `CCCCC(=O)Nc1ccc(C2CCN(C(=O)Nc3c(Cl)cccc3Cl)CC2)cc1` [Compound 130], half-maximal inhibition (IC50) required 0.038 µM.

As to `COc1ccc(CC(=O)Nc2ccc([N+]3([O-])CCN(C(=O)Nc4c(Cl)cc(C[N+]5([O-])CCCC5)cc4Cl)CC3)cc2)cc1` [Compound 300], the midpoint of inhibition, the IC50, lay at 0.02 µM.

Consider `CCC(NC(=O)OC(C)(C)C)C(=O)Nc1ccc(C2CCN(C(=O)Nc3c(Cl)cccc3Cl)CC2)cc1` (centres unmarked) [Compound 205], for which it took 0.398 µM to reach half-maximal inhibition (IC50).

The molecule `CC(C)C(NC(=O)OC(C)(C)C)C(=O)Nc1ccc(C2CCN(C(=O)Nc3c(Cl)cccc3Cl)CC2)cc1` (centres unmarked) [Compound 208] had an IC50 of 0.191 µM.

In turn, `O=C(CCN1CCOCC1)Nc1ccc(N2CCN(C(=O)Nc3c(Cl)cccc3Cl)CC2)cc1` [Compound 136] showed an IC50 of 0.389 µM.

As to `C#CCC(NC(=O)OC(C)(C)C)C(=O)Nc1ccc(C2CCN(C(=O)Nc3c(Cl)cccc3Cl)CC2)cc1` (centres unmarked) [Compound 220], the IC50 is 0.0191 µM.

Molecule `CC(O)c1cc(Cl)c(NC(=O)N2CCN(c3ccc(NC(=O)CCCc4ccccc4)cc3)CC2)c(Cl)c1` (single isomer, unassigned) [Compound 271] had an IC50 of 0.00324 µM.

`CC(C)(C)OC(=O)NC(CC#N)C(=O)Nc1ccc(C2CCN(C(=O)Nc3c(Cl)cccc3Cl)CC2)cc1` (centres unmarked) [Compound 211] showed an IC50 of 0.126 µM.

`N#CCCNCC(=O)Nc1ccc(C2CCN(C(=O)Nc3c(Cl)cccc3Cl)CC2)cc1` [Compound 121] had an IC50 of 3.8 µM.

Molecule `O=C(CCCc1ccccc1)Nc1ccc(N2CCN(C(=O)Nc3c(Cl)cc(C(=O)O)cc3Cl)CC2)cc1` [Compound 27] had an IC50 of 0.0339 µM.

Broadly, the IC50 is the midpoint of a concentration-inhibition curve. Low readings indicate greater potency in that assay, high ones weaker potency in that assay.
